Where two headings read alike, the source gives them in different places. Each block holds one molecule with its values, some of them ahead of it. Bridges are numbered along the chain shown (N, C = ends).
Legend:
NPR2 guanylyl cyclase [1] = assay: cGMP production in chondrocytes of intact tibia growth plates (cGi500 FRET sensor imaging); assay type: cell-based, mouse; conditions: for cGMP increase (CFP/YFP emission ratio from cGi500) on perfusion of agonist: no FGF
Procedure: cGMP production in chondrocytes within intact growth plates was measured using tibias dissected from newborn mice (0- to 1-day-old mice) that globally expressed 1 or 2 copies of the cGi500 FRET sensor, as previously described ([27]). Tibias were dissected and cultured overnight on Millicell organotypic membranes (PICMORG50; MilliporeSigma) in BGJb medium (Thermo Fisher Scientific, catalog 12591-038) with 0.1% BSA (MP Biomedicals, catalog 103700), 100 units/mL of penicillin, and 100 μg/mL of streptomycin (Thermo Fisher Scientific, 15140-122). In preparation for imaging, each tibia was slit to remove the tissue overlying the growth plate. Where indicated, the tibia was incubated in LB-100, cantharidin, or control medium, followed by addition of FGF18 (0.5 μg/mL + 1 μg/mL heparin) or control medium containing heparin only. The tibia was then placed in a perfusion slide (ibidi USA, catalog 80186, special order with no adhesive), and the growth plate was imaged on the stage of a confocal microscope, as previously described ([27]).

[2] = molecular target: T1, recombinant PPP1CA (PPP1C) (Homo sapiens, UniProt P62136); assay: Phosphatase activity inhibition assay (DiFMUP or [32P]-phosphohistone substrate); assay type: biochemical
T1 construct: made in house; host or cells: E. coli BL-21
T1 sequence (P62136 whole entry): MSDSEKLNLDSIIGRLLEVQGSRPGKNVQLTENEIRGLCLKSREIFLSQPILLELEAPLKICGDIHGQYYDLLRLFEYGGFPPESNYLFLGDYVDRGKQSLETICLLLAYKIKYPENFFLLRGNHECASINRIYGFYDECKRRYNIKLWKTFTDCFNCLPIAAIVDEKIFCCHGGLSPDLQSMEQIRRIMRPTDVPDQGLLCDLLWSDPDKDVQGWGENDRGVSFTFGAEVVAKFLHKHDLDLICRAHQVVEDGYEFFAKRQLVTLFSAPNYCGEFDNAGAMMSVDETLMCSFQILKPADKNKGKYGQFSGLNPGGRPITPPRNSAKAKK
Procedure: The coding sequence of human PPP1CA was expressed as a maltose binding protein fusion in a BL-21 strain of E. coli and purified as previously described ([55]). Phosphohistone phosphatase assays were performed as previously described ([55], [56]). Briefly, LB-100, at the indicated concentrations, or vehicle control (H2O) was added to enzyme/buffer aliquots about 10 minutes prior to starting assays by the addition of [^32P]-phosphohistone substrate (to a final assay concentration of 300 nM incorporated phosphate). [^32P]-phosphohistone was prepared by the phosphorylation of bovine brain histone (MilliporeSigma, type-2AS) with cAMP-dependent protein kinase (PKA) in the presence of cAMP and [^32P]-ATP using established methods ([56], [57]). Phosphatase activity was measured by the quantitation of [^32P]-labeled orthophosphate liberated from the substrate using established protocols ([57]). 6,8-Difluoro-4-methylumbelliferyl phosphate–based (DiFMUP-based) inhibition assays were conducted as described ([56], [57]), in a 96-well format using DiFMUP (Invitrogen) (100 μM final assay concentration). IC50 values were calculated from a 10-point concentration/dose response curve by a 4-parameter logistic fit of the data, using 3–8 replicates per concentration.

NPR2 = NPR2 phosphorylation in primary rib chondrocyte cultures (Phos-tag gel electrophoresis, Western blot); assay type: cell-based, mouse; conditions: for NPR2 dephosphorylation in response to FGF: then FGF18 0.5 μg/mL 10 minutes
Procedure: Rib cages were dissected from newborn mice (0–2 days old) and trimmed to remove the skin, spinal cord, and soft tissue around the sternum and ribs. Nonchondrocyte tissue was digested away by incubating the rib cages in 2 mg/mL pronase (Roche, catalog 10165921001) in PBS for 1 hour in a shaking water bath at 37°C and was then incubated in 3 mg/mL collagenase D (Roche, catalog 11088866001) in medium for 1 hour. After washing, the rib cages were transferred to a dish with fresh collagenase D and incubated for 5–6 hours, with trituration at 2 hours, to release the chondrocytes. The isolated cells were passed through a 40 μm nylon cell strainer (Corning, catalog 431750), resuspended in DMEM/F12 medium (Thermo Fisher Scientific, catalog 11320-033) with 10% FBS (Thermo Fisher Scientific, catalog 10082-139), 100 units/mL of penicillin, and 100 μg/mL of streptomycin. The cells were plated in 35 mm tissue culture dishes, at a density corresponding to 1 newborn mouse per dish, and cultured for 3 days, at which point the cells were approximately 75%–90% confluent. They were then washed with PBS and incubated in serum-free medium for 18 hours. The cells were then incubated in LB-100 (10 μM), or control medium, followed by addition of FGF18 (0.5 μg/mL + 1 μg/mL heparin) or control medium containing heparin only.
At end of the incubation period, dishes were washed in PBS, and cells were lysed in 250 μL of 1% SDS containing 10 mM sodium fluoride, 1 μM microcystin-LR (Cayman Chemical, catalog 10007188), and protease inhibitor cocktail (Roche, catalog 04 693 159 001). Protein content was determined by a BCA assay (Pierce, catalog 23225). The protein yield per newborn mouse was approximately 200–300 μg.
Proteins were separated in a Phos-tag–containing gel, as previously described ([58]), except that chondrocyte lysates (30 μg protein) were used without immunoprecipitation. Phos-tag and protein size markers were obtained from Fujifilm Wako Pure Chemical (catalogs AAL-107 and 230-02461, respectively). For these studies, we used mice with HA-tagged NPR2 ([43]), and blots were probed with an antibody against the HA tag (Cell Signaling Technology, catalog 2367, 1:1000 dilution). The specificity of this antibody is validated in Supplemental Figure 3. Note that molecular weight markers are only approximate for Phos-tag gels.

PPP5C = tested on: PPP5C; parameters: method as in PMID 30679389; conditions: reported previously, read-out: Phosphatase IC50 mean ± SE, PPP5C, cited from earlier work
Fgfr3^Y367C/+ femurs = assay: Ex vivo culture of fetal femurs, growth in length and area; parameters: species or system mouse; conditions: E16.5 Fgfr3^Y367C/+ femurs, 6-day culture; LB-100 10 μM, BMN-111 0.1 μM
Procedure: Femurs from E16.5 embryos were cultured ex vivo, as described previously ([32], [47]). The left femur was cultured in the presence of LB-100 (10 μM), BMN-111 (0.1 μM), or LB-100 (10 μM) + BMN-111 (0.1 μM) and was compared with the vehicle-treated right femur. The bone’s length was measured on day 0 (D0) and D6. Images were captured with an Olympus SZX12 stereo microscope and quantified using cellSens software (Olympus). The results were expressed as the increase in femur length or area (D6 – D0) in the presence or absence of LB-100, BMN-111, or LB-100 + BMN-111. Bone length and area were measured as shown in Supplemental Figure 5. To generate the graphs shown in Figure 3, the length or 2-dimensional area on D0 was subtracted from the length or area on D6 to calculate the amount of growth. These measurements of growth in drug-treated bones were divided by the mean values from corresponding measurements of control (vehicle-treated) bones; the graphs show the ratio of treated/control growth.

PPP2C = tested on: PPP2C; parameters: method as in PMID 30679389; conditions: reported previously, read-out: Phosphatase IC50 mean ± SE, PPP2C, cited from earlier work
NPR2 guanylyl cyclase [3] = tested on: NPR2 guanylyl cyclase; parameters: method as in PMID 29199951; conditions: 100 μM; cited from earlier work
Fgfr3^Y367C/+ mice = tested on: Fgfr3^Y367C/+ mice; parameters: method as in PMID 23200862; conditions: cited from earlier work
[4] = tested on: growth plate chondrocytes of Fgfr3^Y367C/+ femurs; assay: Histology of growth plates of ex vivo cultured femurs (HES, COLX immunostaining); parameters: species or system mouse; conditions: 6-day culture, LB-100 10 μM, BMN-111 0.1 μM
Excerpt: After a 6-day culture period, fetal femur (E16.5) explants were fixed in 4% paraformaldehyde, decalcified with EDTA (0.4M), and embedded in paraffin. Serial 5 μm sections were stained with hematoxylin‑eosin‑safran (HES) reagent, using standard protocols. For immunohistochemical assessment, sections were labeled with the following antibodies and a Dako Envision Kit: anti-COLX (BIOCYC, catalog N.2031501005; 1:50 dilution), and anti–phosphorylated ERK1‑2 ([…]) (Cell Signaling Technology, catalog 4370; 1:100 dilution). Images were captured with an Olympus PD70-IX2-UCB microscope and quantified using cellSens software.
Mean areas of individual hypertrophic chondrocytes were measured from COLX-labeled sections, within a 166 μm wide × 76 μm high box positioned 50 μm from mineralization front (Supplemental Figure 6). The measurements were made manually using Fiji software and the freehand selection tool. […] We measured the total area occupied by chondrocytes within the whole growth plate and the area occupied by COLX^+ chondrocytes. The area for proliferating chondrocytes was calculated by subtracting the COLX^+ area from the whole growth plate area.

children with ACH = tested on: children with ACH; parameters: method as in PMID 31269546, PMID 32891212; conditions: children 5–14 years of age with ACH, up to 42 months, phase 2 and 3 data; cited from earlier work
[5] = substrate [32P]-labeled phosphohistone

Molecule: CCN(CC)/[N+]([O-])=N/O.CCNCC [DEA/NO]
cGMP increase (CFP/YFP emission ratio from cGi500) on perfusion of agonist (NPR2 guanylyl cyclase [1]; 10 μM perfused across growth plate of newborn mouse tibia): did not increase cGMP

Molecule: CN1CCN(C(=O)C2C3CCC(O3)C2C(=O)O)CC1 (stereo not shown) [LB-100, 3-[4-methylpiperazine-1-carbonyl]-7-oxabicyclo[2.2.1]heptane-2-carboxylic acid]
IC50 ([2]; 2 established assays with different substrates, read-out: IC50 for inhibition of PPP1C): < 2 µM
IC50 ([2]; substrate DiFMUP, read-out: Phosphatase IC50 mean ± SE, PPP1C): 1.8 ± 0.021 µM
IC50 ([2]; substrate [32P]-labeled phosphohistone, read-out: Phosphatase IC50 mean ± SE, PPP1C): 1.68 ± 0.13 µM
NPR2 dephosphorylation in response to FGF (NPR2; 10 μM preincubation 1 hour with BMN-111 0.1 μM present): counteracts the FGF-induced dephosphorylation
NPR2 dephosphorylation in response to FGF (NPR2; 10 μM preincubation 1 hour): only partial
CNP-induced cGMP increase in FGF-treated tibias (NPR2 guanylyl cyclase [1]; 1 μM preincubation 60 minutes before FGF18 (80 minutes)): no effect
Effectiveness in counteracting inactivation of NPR2 by FGF, compared with cantharidin (NPR2 guanylyl cyclase [1]; 5 μM LB-100 equivalent to 10 μM cantharidin): more effective than cantharidin
CNP-induced cGMP increase in FGF-treated tibias (NPR2 guanylyl cyclase [1]; 5 μM preincubation 60 minutes before FGF18 (80 minutes)): enhanced
CNP-induced cGMP increase in FGF-treated tibias (NPR2 guanylyl cyclase [1]; 10 μM preincubation 60 minutes before FGF18 (80 minutes)): enhanced
Chondrocyte morphology in the live growth plate (NPR2 guanylyl cyclase [1]; 10 μM, 2-hour incubation): no visible change in chondrocyte morphology
IC50 (PPP5C; substrate DiFMUP): 1.82 ± 0.093 µM
IC50 (PPP5C; [5]): 4.9 ± 0.29 µM
Increase in bone length, ratio treated/vehicle-treated control (Fgfr3^Y367C/+ femurs): 1.30
Increase of total bone and cartilage area, growth ratio treated/control (Fgfr3^Y367C/+ femurs): 1.40
IC50 (PPP2C; substrate DiFMUP): 0.39 ± 0.013 µM
IC50 (PPP2C; [5]): 0.64 ± 0.037 µM

Molecule: C[C@@]12C(=O)OC(=O)[C@]1(C)[C@H]1CC[C@@H]2O1 [cantharidin, Cantharidin]
Effect on inactivation of NPR2 by FGF in growth plate chondrocytes (NPR2 guanylyl cyclase [3]): inhibits the inactivation of NPR2

Molecule: (Cyc[23,39])H2N-PGQEHPNARKYKGANKKGLSKGCFGLKLDRIGSMSGLGC-OH (H-PGQEHPNARKYKGANKKGLSKGCFGLKLDRIGSMSGLGC-OH; disulfide 23-39) [BMN-111, protease-resistant CNP analog, NPR2 agonist]
Bone growth in mouse model of ACH (Fgfr3^Y367C/+ mice): increases bone growth
NPR2 phosphorylation (NPR2; 0.1 μM for 1 hour, independently of FGF treatment): some reduction in NPR2 phosphorylation
Size of Fgfr3^Y367C/+ hypertrophic chondrocytes ([4]; proximal growth plate): increased the size
Increase of total proliferative growth plate area of the femur over vehicle ([4]; proximal plus distal growth plates): 20%
Increase in bone length, ratio treated/vehicle-treated control (Fgfr3^Y367C/+ femurs): 1.78
Increase of total bone and cartilage area, growth ratio treated/control (Fgfr3^Y367C/+ femurs): 1.51
Annualized growth velocity (children with ACH): sustained increase in annualized growth velocity

Molecule: ANP: A-type natriuretic peptide, which activates the NPR1 guanylyl cyclase
cGMP increase (CFP/YFP emission ratio from cGi500) on perfusion of agonist (NPR2 guanylyl cyclase [1]; 0.1 μM agonist perfused across growth plate of newborn mouse tibia): did not increase cGMP

Effect on cGMP increase in response to CNP perfusion (NPR2 guanylyl cyclase [1]; pretreatment 0.5 μg/mL FGF18 + 1 μg/mL heparin for 80 minutes, 0.1 μM CNP): suppressed the cGMP increase
Molecule: FGF18: fibroblast growth factor 18 used to activate FGF receptor
NPR2 phosphorylation (NPR2; FGF18 0.5 μg/mL for 10 minutes): decrease in NPR2 phosphorylation

From paper PMC8262325, “Phosphatase inhibition by LB-100 enhances BMN-111 stimulation of bone growth” (JCI Insight, 2021)
